{"source": "ChEMBL document CHEMBL4007451", "about": "“The 2014 Philip S. Portoghese Medicinal Chemistry Lectureship: The \"Phenylalkylaminome\" with a Focus on Selected Drugs of Abuse” (J Med Chem, 2017)", "key": {"[1]": {"biological_target": "5-hydroxytryptamine receptor 6 (Homo sapiens, UniProt P50406)", "sequence (P50406 whole entry)": "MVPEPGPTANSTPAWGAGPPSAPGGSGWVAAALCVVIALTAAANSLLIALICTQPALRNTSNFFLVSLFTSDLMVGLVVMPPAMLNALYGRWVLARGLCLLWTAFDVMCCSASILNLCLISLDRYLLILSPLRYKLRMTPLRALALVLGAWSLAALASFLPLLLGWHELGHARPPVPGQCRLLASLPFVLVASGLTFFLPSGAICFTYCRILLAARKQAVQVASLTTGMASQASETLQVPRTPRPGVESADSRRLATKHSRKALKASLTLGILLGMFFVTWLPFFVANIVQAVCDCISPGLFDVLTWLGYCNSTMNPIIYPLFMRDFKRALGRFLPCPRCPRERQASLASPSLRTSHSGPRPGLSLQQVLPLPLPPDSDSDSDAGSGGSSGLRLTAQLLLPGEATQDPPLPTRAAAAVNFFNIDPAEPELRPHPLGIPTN", "assay": "Displacement of [3H]LSD from human 5HT6 receptor expressed in HEK293 cells", "type": "cell-based"}, "[2]": {"biological_target": "T1, 5-hydroxytryptamine receptor 1A (Homo sapiens, UniProt P08908)", "T1 sequence (P08908 whole entry)": "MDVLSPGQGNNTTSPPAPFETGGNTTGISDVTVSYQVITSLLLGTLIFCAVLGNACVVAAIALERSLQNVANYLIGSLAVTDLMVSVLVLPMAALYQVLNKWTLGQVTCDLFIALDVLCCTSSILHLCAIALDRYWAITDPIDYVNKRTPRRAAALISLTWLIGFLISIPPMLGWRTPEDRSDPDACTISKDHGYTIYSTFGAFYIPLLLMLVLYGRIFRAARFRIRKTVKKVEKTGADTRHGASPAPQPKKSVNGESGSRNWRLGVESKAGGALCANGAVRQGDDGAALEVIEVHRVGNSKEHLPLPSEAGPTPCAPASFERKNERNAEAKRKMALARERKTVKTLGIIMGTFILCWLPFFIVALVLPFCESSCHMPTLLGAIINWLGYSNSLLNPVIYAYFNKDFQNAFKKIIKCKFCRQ", "assay": "Binding affinity to 5-HT1A receptor (unknown origin)"}, "[3]": {"biological_target": "T2, 5-hydroxytryptamine receptor 2A (Rattus norvegicus, UniProt P14842)", "T2 sequence (P14842 whole entry)": "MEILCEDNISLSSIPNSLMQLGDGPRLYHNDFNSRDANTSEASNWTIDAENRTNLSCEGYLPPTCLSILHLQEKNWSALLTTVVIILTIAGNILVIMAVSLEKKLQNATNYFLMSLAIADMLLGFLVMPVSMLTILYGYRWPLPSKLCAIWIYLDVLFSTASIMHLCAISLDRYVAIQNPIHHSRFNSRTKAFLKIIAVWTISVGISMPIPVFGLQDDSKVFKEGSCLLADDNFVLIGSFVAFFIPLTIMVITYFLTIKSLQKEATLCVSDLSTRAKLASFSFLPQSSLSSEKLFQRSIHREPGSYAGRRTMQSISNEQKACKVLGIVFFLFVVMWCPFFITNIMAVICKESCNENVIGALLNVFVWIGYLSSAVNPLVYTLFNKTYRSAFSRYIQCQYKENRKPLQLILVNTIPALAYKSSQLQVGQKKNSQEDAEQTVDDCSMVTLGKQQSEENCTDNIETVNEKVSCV", "assay": "Displacement of [125I]DOI from rat cortex 5HT2A after 1 hr by beta scintillation counting method"}, "Rattus norvegicus [4]": {"tested_on": "Rattus norvegicus", "assay": "In vivo agonist activity at 5HT2A in ip dosed DOM-trained Sprague-Dawley rat assessed as increase in discriminative stimulus pretreated before testing", "type": "functional"}, "Rhesus monkey": {"tested_on": "Rhesus monkey", "assay": "In vivo agonist activity at 5HT2A in DOM-trained rhesus monkey assessed as increase in discriminative stimulus administered subcutaneously pretreated before testing", "type": "functional", "details": "Macaca mulatta, sc"}, "Rattus norvegicus [5]": {"species_on_record": "Rattus norvegicus", "assay": "Induction of stimulus generalization in rat trained to discriminate S(+)methamphetamine assessed as appropriate responding level to training drug by two lever method", "type": "functional"}, "Rattus norvegicus [6]": {"species_on_record": "Rattus norvegicus", "assay": "Induction of stimulus generalization in Sprague-Dawley rat trained to discriminate TDIQ assessed as appropriate responding level to training drug by two lever method", "type": "functional"}, "Rattus norvegicus [7]": {"species_on_record": "Rattus norvegicus", "assay": "Induction of stimulus generalization in Sprague-Dawley rat trained to discriminate S(+)AMPH assessed as appropriate responding level to training drug by two lever method", "type": "functional"}, "Rattus norvegicus [8]": {"species_on_record": "Rattus norvegicus", "assay": "Induction of stimulus generalization in Sprague-Dawley rat trained to discriminate S(-)MCAT assessed as appropriate responding level to training drug by two lever method", "type": "functional"}, "[9]": {"biological_target": "Sodium-dependent dopamine transporter (Rattus norvegicus, UniProt P23977)", "sequence (P23977 whole entry)": "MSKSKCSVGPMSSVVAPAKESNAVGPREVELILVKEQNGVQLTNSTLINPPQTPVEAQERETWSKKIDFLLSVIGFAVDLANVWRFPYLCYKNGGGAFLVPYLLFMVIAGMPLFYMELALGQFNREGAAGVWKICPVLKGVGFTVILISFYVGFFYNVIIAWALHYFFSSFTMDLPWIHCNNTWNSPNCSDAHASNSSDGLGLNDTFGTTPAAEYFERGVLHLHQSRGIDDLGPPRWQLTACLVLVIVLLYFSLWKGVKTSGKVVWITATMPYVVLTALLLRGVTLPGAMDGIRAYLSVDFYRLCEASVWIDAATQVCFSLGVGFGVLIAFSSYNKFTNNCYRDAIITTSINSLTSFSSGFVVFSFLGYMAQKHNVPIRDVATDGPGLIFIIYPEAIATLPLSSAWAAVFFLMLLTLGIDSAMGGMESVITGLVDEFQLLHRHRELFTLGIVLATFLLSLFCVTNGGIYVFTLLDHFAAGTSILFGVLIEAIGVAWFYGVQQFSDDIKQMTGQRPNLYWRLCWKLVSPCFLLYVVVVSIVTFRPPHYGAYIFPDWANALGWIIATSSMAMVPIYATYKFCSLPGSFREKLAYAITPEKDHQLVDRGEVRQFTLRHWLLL", "assay": "Inhibition of DAT in Sprague-Dawley rat synaptosomes assessed as reduction in [3H]dopamine uptake by liquid scintillation counting method", "type": "subcellular"}, "Mus musculus": {"tested_on": "Mus musculus", "assay": "Anxiolytic-like activity in iv dosed ICR mouse assessed as increase in marbles left uncovered measured after 30 mins by marble burying assay", "type": "functional", "details": "0.5 h"}, "[10]": {"biological_target": "T3, Alpha-2A adrenergic receptor (Homo sapiens, UniProt P08913)", "T3 sequence (P08913 whole entry)": "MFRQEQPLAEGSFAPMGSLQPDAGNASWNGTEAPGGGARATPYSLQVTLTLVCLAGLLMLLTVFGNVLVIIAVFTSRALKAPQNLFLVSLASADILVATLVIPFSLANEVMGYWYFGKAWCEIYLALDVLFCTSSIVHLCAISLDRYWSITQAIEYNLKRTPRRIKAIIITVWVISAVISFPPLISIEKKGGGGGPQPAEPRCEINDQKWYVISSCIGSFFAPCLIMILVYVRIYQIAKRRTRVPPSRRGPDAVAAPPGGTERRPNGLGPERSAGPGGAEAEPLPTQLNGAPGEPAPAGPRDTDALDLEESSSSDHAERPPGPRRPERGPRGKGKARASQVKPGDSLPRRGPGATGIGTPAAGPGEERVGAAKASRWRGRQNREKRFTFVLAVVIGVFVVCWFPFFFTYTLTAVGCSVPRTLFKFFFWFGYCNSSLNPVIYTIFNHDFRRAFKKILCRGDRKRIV", "assay": "Binding affinity to alpha-2A receptor (unknown origin)"}, "[11]": {"biological_target": "T4, Alpha-2B adrenergic receptor (Homo sapiens, UniProt P18089)", "T4 sequence (P18089 whole entry)": "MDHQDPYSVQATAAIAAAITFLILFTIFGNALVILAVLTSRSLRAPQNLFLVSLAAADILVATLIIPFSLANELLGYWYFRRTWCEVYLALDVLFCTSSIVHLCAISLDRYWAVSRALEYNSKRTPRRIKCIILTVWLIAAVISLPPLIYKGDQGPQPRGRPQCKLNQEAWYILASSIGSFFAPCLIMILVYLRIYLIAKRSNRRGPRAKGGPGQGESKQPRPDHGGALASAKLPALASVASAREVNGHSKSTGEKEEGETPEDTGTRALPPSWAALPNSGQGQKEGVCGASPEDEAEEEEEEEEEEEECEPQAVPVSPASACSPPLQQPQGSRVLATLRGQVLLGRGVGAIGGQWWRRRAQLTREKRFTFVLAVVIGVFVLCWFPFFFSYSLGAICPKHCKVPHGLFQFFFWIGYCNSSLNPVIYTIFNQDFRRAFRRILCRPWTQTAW", "assay": "Binding affinity to alpha-2B receptor (unknown origin)"}, "[12]": {"biological_target": "T5, Alpha-2C adrenergic receptor (Homo sapiens, UniProt P18825)", "T5 sequence (P18825 whole entry)": "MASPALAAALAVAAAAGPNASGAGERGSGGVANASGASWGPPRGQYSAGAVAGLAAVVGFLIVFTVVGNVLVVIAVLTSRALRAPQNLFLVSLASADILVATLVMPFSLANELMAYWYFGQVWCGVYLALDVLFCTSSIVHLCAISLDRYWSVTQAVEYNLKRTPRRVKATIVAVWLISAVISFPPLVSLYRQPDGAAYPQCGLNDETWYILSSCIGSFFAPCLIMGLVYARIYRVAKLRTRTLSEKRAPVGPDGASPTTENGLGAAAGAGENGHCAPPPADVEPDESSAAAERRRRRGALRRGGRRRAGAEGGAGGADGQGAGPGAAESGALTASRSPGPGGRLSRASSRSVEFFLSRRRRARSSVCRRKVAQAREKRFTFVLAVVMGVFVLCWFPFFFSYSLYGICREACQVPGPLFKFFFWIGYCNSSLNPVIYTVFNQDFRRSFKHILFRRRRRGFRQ", "assay": "Binding affinity to alpha-2C receptor (unknown origin)"}, "[13]": {"biological_target": "Trace amine-associated receptor 1 (Rattus norvegicus, UniProt Q923Y9)", "sequence (Q923Y9 whole entry)": "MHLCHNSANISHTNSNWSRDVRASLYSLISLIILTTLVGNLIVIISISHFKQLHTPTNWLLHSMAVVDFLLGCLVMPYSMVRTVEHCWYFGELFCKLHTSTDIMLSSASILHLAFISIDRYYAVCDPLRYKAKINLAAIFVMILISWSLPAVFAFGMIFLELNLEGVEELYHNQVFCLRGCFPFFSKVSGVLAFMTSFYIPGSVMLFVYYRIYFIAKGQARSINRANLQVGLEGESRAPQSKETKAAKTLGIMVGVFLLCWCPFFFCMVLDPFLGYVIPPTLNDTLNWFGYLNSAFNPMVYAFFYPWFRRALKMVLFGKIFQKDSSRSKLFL", "assay": "Agonist activity at rat N-terminal FLAG-tagged TAAR1 expressed in HEK293 cells assessed as [3H]cAMP accumulation measured after 1 hr", "type": "functional, cell-based"}, "[14]": {"biological_target": "T2, 5-hydroxytryptamine receptor 2A", "assay": "Displacement of [3H]ketanserin from 5HT2A in Sprague-Dawley rat cortex membranes measured after 15 mins", "type": "cell membranes"}}, "data": [{"smiles": "NC1CCc2c(cccc2NS(=O)(=O)c2ccccc2)C1", "note": "(stereo not drawn)", "values": [{"measurement": "Ki", "setting": "[1]", "result": 49, "unit": "nM"}]}, {"smiles": "NCCc1ccc(S(=O)(=O)n2ccc3ccccc32)cc1", "values": [{"measurement": "Ki", "setting": "[1]", "result": 2.5, "unit": "nM"}]}, {"smiles": "CCCNCCc1ccccc1O", "values": [{"measurement": "Ki", "setting": "[2]", "result": "> 1000", "unit": "nM"}]}, {"smiles": "C[C@H](N)Cn1ncc2ccc3c(c21)CCCO3", "values": [{"measurement": "Ki", "setting": "[3]", "result": 0.13, "unit": "nM"}, {"measurement": "ED50", "setting": "Rattus norvegicus [4]", "result": 0.05, "unit": "mg/kg"}, {"measurement": "ED50", "setting": "Rhesus monkey", "result": 0.04, "unit": "mg/kg"}]}, {"smiles": "CCCN(CCC)CCc1ccccc1O", "values": [{"measurement": "Ki", "setting": "[2]", "result": 400, "unit": "nM"}]}, {"smiles": "COC(=O)[C@H]1[C@@H](OC(=O)c2ccccc2)C[C@@H]2CC[C@H]1N2C", "note": "[COCAINE]", "values": [{"measurement": "ED50", "setting": "Rattus norvegicus [5]", "result": "3.68 to 6.68", "unit": "mg/kg"}, {"measurement": "ED50", "setting": "Rattus norvegicus [6]", "result": 1.5, "unit": "mg/kg"}, {"measurement": "ED50", "setting": "Rattus norvegicus [7]", "result": 5.63, "unit": "mg/kg"}, {"measurement": "ED50", "setting": "Rattus norvegicus [8]", "result": 1.47, "unit": "mg/kg"}]}, {"smiles": "CCC[C@@H](C(=O)c1ccc2c(c1)OCO2)N1CCCC1", "values": [{"measurement": "IC50", "setting": "[9]", "result": 2.1, "unit": "nM"}]}, {"smiles": "c1c2c(cc3c1OCO3)CNCC2", "values": [{"measurement": "ED50", "setting": "Mus musculus", "result": 0.2, "unit": "mg/kg"}, {"measurement": "Ki", "setting": "[10]", "result": "< 100", "unit": "nM"}, {"measurement": "Ki", "setting": "[11]", "result": "< 100", "unit": "nM"}, {"measurement": "Ki", "setting": "[12]", "result": "< 100", "unit": "nM"}]}, {"smiles": "NCCc1ccccc1", "note": "[PHENETHYLAMINE]", "values": [{"measurement": "EC50", "setting": "[13]", "result": 240, "unit": "nM"}]}, {"smiles": "COc1cc(CC(C)N(C)C)c(OC)cc1Br", "note": "(stereo not drawn)", "values": [{"measurement": "Ki", "setting": "[14]", "result": 380, "unit": "nM"}]}]}
